Measurements: ChEMBL document CHEMBL4190397, “Design and Synthesis of Novel and Selective Glycine Transporter-1 (GlyT1) Inhibitors with Memory Enhancing Properties” (J Med Chem, 2018)

What was measured:
[1] = target: T1, Sodium- and chloride-dependent glycine transporter 1 (Homo sapiens, UniProt P48067); experiment: Inhibition of recombinant human GlyT1c expressed in HEK293 cells assessed as reduction in [14C]glycine uptake after 2 hrs by microbeta scintillation counting method; format: cell-based
T1 sequence (P48067 whole entry): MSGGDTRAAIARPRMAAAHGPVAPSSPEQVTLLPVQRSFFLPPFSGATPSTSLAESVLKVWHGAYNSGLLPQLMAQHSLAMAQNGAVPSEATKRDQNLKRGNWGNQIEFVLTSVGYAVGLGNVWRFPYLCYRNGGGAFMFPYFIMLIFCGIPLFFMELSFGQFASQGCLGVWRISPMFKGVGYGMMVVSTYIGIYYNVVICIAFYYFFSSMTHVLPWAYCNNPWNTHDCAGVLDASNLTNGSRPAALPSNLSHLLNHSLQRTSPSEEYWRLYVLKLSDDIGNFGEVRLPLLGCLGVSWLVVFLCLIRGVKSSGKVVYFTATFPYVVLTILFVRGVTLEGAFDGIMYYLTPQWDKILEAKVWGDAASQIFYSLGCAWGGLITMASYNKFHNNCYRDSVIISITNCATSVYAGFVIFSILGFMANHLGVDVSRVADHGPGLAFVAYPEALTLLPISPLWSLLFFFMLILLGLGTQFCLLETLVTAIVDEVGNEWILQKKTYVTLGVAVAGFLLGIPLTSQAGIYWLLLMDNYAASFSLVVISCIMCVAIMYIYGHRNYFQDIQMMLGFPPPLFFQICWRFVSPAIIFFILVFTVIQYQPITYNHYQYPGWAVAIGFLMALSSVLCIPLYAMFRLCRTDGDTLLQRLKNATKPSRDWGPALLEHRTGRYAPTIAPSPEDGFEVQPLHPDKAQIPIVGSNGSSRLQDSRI

[2] = target: T2, Sodium- and chloride-dependent glycine transporter 1 (Rattus norvegicus, UniProt P28572); experiment: Inhibition of GlyT1 in primary rat cortical neurons assessed as reduction in [14C]glycine uptake after 2 hrs by microbeta scintillation counting method
T2 sequence (P28572 whole entry): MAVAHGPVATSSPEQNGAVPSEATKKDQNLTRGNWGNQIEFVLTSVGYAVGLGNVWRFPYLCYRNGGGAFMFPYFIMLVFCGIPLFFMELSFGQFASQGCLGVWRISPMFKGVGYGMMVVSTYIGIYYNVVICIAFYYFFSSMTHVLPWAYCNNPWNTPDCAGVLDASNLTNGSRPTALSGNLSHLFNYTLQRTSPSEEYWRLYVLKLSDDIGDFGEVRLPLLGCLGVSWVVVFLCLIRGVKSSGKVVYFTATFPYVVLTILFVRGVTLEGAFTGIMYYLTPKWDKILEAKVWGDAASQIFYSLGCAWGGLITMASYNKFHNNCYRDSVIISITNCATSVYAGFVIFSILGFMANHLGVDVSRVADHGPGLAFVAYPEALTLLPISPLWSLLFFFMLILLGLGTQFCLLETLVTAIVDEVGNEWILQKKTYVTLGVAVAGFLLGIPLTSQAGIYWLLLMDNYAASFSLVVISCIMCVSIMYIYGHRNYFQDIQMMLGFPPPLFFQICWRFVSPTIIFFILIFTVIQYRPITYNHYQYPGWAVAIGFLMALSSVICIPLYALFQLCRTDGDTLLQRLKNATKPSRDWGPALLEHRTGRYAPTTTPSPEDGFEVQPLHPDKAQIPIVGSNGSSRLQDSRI

[3] = target: T3, Sodium- and chloride-dependent glycine transporter 2 (Homo sapiens, UniProt Q9Y345); experiment: Inhibition of recombinant human GlyT2 expressed in HEK293 cells assessed as reduction in [14C]glycine uptake after 2 hrs by microbeta scintillation counting method; format: cell-based
T3 sequence (Q9Y345 whole entry): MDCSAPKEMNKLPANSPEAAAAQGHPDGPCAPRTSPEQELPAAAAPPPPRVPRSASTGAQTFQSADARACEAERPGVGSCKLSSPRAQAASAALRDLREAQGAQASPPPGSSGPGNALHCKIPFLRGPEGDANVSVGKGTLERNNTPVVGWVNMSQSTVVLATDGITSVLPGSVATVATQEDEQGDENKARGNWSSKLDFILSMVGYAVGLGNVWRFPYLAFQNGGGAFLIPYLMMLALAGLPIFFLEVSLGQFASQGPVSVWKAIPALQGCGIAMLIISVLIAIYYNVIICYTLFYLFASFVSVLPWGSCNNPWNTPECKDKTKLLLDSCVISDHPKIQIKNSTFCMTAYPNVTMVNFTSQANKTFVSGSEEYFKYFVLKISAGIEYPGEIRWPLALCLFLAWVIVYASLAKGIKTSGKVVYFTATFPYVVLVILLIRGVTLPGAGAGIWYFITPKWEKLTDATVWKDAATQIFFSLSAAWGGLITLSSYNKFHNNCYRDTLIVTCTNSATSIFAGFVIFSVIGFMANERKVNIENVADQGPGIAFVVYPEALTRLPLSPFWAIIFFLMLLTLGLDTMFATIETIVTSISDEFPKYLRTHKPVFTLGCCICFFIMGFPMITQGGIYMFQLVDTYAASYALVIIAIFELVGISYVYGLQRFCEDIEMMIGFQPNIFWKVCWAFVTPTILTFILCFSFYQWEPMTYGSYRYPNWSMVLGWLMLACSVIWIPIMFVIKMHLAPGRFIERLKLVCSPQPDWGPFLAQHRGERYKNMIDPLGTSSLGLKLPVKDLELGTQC

[4] = Intrinsic clearance in human liver microsomes at 1 uM assessed per mg protein at 37 degC up to 60 mins in presence of NADPH by HPLC-MS analysis; format: ADME, microsome; conditions: read-out: CLH
[5] = Intrinsic clearance in rat liver microsomes at 1 uM assessed per mg protein at 37 degC up to 30 mins in presence of NADPH by HPLC-MS analysis; format: ADME, microsome; conditions: read-out: CLH
[6] = target: Voltage-gated inwardly rectifying potassium channel KCNH2 (Homo sapiens, UniProt Q12809); experiment: Inhibition of human ERG expressed in CHO cells at 10 nM to 10 uM at holding potential of -80 mV measured after 5 mins by QPatch automated patch clamp electrophysiology method
Sequence of Voltage-gated inwardly rectifying potassium channel KCNH2 (Q12809 whole entry): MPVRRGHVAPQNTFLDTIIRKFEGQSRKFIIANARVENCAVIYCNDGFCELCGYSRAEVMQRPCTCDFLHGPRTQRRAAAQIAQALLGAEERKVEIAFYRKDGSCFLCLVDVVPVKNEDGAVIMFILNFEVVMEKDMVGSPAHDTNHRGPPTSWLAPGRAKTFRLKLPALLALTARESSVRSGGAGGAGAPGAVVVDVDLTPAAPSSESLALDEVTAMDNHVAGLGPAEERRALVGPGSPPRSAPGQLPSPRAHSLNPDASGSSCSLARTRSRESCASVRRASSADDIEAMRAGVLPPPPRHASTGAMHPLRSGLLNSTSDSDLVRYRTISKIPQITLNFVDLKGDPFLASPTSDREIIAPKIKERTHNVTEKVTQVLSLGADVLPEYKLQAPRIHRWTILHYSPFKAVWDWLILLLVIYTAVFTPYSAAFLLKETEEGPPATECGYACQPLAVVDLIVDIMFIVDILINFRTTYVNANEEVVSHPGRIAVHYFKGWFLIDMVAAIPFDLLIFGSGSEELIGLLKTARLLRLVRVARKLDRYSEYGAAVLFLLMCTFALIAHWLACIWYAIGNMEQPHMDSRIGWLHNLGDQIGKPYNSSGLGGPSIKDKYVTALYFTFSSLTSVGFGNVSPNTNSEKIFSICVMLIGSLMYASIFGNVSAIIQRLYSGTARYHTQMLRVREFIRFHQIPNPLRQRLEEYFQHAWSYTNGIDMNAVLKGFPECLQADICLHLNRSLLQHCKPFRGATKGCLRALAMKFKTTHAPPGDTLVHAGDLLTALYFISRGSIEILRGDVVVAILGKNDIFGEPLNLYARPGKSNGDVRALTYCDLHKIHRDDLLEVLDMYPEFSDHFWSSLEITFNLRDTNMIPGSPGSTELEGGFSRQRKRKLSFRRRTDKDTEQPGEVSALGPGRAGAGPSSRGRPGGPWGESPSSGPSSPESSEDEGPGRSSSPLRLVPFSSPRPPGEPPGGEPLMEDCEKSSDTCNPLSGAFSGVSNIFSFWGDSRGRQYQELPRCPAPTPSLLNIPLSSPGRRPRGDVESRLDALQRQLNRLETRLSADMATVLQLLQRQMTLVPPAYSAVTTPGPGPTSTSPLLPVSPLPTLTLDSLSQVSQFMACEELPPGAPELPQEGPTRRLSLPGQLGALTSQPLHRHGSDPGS

[7] = Apparent permeability from apical to basolateral side in MDCK-MDR1 cells monolayer at 5 uM after 60 mins by LC-MS/MS analysis; conditions: dog
[8] = Apparent permeability from basolateral to apical side in MDCK-MDR1 cells monolayer at 5 uM after 60 mins by LC-MS/MS analysis; conditions: dog
[9] = Efflux ratio of apparent permeability from basolateral to apical over apical to basolateral side in MDCK-MDR1 cells at 5 uM after 60 mins by LC-MS/MS analysis; conditions: dog
Cytochrome P450 1A2 = target: T4, Cytochrome P450 1A2 (Homo sapiens, UniProt P05177); experiment: Inhibition of CYP1A2 in human liver microsomes using phenacetin as substrate measured after 10 mins in presence of NADPH by LC-MS/MS analysis
T4 sequence (P05177 whole entry): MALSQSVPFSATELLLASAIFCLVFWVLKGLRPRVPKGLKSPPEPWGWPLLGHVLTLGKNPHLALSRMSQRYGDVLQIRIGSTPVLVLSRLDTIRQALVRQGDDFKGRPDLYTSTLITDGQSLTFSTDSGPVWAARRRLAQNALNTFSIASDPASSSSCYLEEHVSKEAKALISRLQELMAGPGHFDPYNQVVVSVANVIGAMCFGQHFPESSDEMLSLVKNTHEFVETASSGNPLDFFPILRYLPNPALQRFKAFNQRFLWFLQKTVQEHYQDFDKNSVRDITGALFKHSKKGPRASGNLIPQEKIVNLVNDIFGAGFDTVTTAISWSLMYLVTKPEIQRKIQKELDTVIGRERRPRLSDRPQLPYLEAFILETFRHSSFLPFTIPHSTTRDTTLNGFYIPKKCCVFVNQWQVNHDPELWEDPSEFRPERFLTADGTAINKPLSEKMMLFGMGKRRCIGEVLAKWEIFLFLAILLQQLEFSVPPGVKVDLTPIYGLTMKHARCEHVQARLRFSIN

Cytochrome P450 2C9 = Cytochrome P450 2C9 (Homo sapiens, UniProt P11712); experiment: Inhibition of CYP2C9 in human liver microsomes using diclofenac as substrate measured after 10 mins in presence of NADPH by LC-MS/MS analysis
Sequence of Cytochrome P450 2C9 (P11712 whole entry): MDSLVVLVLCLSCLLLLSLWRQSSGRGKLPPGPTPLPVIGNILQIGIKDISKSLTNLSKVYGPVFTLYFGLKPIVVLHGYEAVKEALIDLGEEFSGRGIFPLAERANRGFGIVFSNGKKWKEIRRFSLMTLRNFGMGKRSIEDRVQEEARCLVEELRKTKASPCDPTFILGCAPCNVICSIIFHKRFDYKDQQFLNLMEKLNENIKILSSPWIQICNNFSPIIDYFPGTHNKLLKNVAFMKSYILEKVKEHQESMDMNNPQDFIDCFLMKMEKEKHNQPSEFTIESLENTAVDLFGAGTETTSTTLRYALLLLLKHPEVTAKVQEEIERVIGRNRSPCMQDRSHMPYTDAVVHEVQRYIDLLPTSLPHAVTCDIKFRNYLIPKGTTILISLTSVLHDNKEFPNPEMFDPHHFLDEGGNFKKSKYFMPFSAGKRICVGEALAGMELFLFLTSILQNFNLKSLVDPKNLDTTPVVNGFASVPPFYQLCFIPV

Cytochrome P450 2C19 = Cytochrome P450 2C19 (Homo sapiens, UniProt P33261); experiment: Inhibition of CYP2C19 in human liver microsomes using S-mephenytoin as substrate measured after 10 mins in presence of NADPH by LC-MS/MS analysis
Sequence of Cytochrome P450 2C19 (P33261 whole entry): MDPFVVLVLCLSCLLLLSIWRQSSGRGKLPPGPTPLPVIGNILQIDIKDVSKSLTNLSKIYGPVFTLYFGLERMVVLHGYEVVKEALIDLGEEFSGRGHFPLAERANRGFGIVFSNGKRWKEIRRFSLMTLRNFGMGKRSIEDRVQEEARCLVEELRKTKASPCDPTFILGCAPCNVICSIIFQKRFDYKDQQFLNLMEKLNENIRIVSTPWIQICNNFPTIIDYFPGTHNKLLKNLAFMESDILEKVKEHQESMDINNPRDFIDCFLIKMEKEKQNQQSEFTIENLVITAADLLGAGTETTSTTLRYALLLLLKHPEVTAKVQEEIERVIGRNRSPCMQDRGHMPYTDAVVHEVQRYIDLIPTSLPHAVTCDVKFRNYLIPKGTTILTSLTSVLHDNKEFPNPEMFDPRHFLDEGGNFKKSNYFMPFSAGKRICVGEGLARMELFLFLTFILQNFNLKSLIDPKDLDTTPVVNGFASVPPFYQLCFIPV

Cytochrome P450 2D6 = Cytochrome P450 2D6 (Homo sapiens, UniProt P10635); experiment: Inhibition of CYP2D6 in human liver microsomes using dextromethorphan as substrate measured after 10 mins in presence of NADPH by LC-MS/MS analysis
Sequence of Cytochrome P450 2D6 (P10635 whole entry): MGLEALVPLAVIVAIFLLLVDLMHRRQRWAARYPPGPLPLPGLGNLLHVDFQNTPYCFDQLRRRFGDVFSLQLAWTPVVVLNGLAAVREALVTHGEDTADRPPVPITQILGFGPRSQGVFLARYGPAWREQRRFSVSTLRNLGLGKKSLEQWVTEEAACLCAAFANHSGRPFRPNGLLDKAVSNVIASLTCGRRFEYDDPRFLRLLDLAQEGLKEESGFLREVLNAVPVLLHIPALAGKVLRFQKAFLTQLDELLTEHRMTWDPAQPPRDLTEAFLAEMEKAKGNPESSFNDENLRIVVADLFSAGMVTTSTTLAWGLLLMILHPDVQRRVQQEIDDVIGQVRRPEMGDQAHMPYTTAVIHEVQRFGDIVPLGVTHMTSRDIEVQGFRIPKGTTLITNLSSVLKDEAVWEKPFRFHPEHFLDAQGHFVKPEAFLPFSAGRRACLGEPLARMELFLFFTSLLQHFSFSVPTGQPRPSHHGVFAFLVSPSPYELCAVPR

Cytochrome P450 3A4 = Cytochrome P450 3A4 (Homo sapiens, UniProt P08684); experiment: Inhibition of CYP3A4 in human liver microsomes using midazolam as substrate measured after 7 mins in presence of NADPH by LC-MS/MS analysis
Sequence of Cytochrome P450 3A4 (P08684 whole entry): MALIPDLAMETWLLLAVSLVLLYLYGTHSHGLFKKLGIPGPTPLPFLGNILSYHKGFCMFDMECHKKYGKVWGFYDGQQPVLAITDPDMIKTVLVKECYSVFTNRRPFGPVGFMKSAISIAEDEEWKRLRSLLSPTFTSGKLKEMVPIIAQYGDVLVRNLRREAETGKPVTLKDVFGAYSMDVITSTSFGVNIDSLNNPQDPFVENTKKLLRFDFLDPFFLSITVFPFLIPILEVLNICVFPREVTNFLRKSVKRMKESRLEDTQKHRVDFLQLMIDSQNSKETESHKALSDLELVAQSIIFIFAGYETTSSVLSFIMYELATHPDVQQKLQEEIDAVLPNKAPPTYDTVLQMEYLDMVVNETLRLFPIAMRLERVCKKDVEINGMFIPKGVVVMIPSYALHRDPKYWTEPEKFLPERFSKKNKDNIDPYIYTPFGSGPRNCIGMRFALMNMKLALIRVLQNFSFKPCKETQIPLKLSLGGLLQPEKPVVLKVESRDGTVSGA

Row | Structure (SMILES) | IC50 [1] [nM] | IC50 [2] [nM] | IC50 [3] [nM] | also measured
1 | CC(C)Oc1ccc(S(C)(=O)=O)cc1C(=O)N1Cc2cn(-c3ccccc3F)nc2C1 | 23 | 18 | > 10000 | 
2 | N#Cc1ccc(-c2cccc(F)c2)c(C(=O)N2Cc3cn(-c4cncc(F)c4)nc3C2)c1 |  | 619 | > 10000 | 
3 | Cc1cc(-n2cc3c(n2)CN(C(=O)c2cc(C#N)ccc2-c2cccc(F)c2)C3)ccn1 | 55 | 78 | > 10000 | 
4 | CS(=O)(=O)c1ccc(-c2cccc(F)c2)c(C(=O)N2Cc3cn(-c4cncc(F)c4)nc3C2)c1 | 6 | 10 | > 10000 | 
5 | Cc1cc(-n2cc3c(n2)CN(C(=O)c2cc(C#N)ccc2O[C@@H](C)C(F)(F)F)C3)ccn1 | 18 | 27 | > 10000 | 
6 | Cc1cc(-n2cc3c(n2)CN(C(=O)c2cc(C#N)ccc2N2CCC(F)(F)CC2)C3)ccn1 |  | 4 | > 10000 | 
7 | CS(=O)(=O)c1ccc(-c2cccc(F)c2)c(C(=O)N2Cc3cn(-c4ccccc4F)nc3C2)c1 | 10 | 12 | > 10000 | 
8 | Cc1cc(-n2cc3c(n2)CN(C(=O)c2cc(S(C)(=O)=O)ccc2O[C@@H](C)C(F)(F)F)C3)ccn1 | 12 | 3 | > 10000 | 
9 | Cc1cc(-n2cc3c(n2)CN(C(=O)c2cc(S(C)(=O)=O)ccc2N2CCC(F)(F)CC2)C3)ccn1 | 7 | 4 | > 10000 | 
10 | CCS(=O)(=O)c1ccc(O[C@@H](C)C(F)(F)F)c(C(=O)N2Cc3cn(-c4ccccc4F)nc3C2)c1 | 29 | 9 | > 10000 | microsomal CLint at 1 µM [4]: 0.9 µL/min/mg; IC50 [6]: > 10000 nM; Papp A→B at 1 h, 5 µM [7]: 18 ×10⁻⁶ cm/s; Papp B→A at 1 h, 5 µM [8]: 51.9 ×10⁻⁶ cm/s; efflux ratio at 1 h, 5 µM [9]: 2.9; IC50 (Cytochrome P450 1A2): > 10000 nM; IC50 (Cytochrome P450 2C9): > 10000 nM; IC50 (Cytochrome P450 2C19): > 10000 nM; IC50 (Cytochrome P450 2D6): > 10000 nM; IC50 (Cytochrome P450 3A4): > 10000 nM

More lines, in order of falling IC50 [2], values ahead:

Row | IC50 [1] [nM] | IC50 [2] [nM] | IC50 [3] [nM] | Structure (SMILES) | also measured
11 | 210 | 331 |  | C[C@H](Oc1ccc(C#N)cc1C(=O)N1Cc2cn(C3CCCC3)nc2C1)C(F)(F)F | 
12 | 113 | 183 | > 10000 | CC(C)Oc1ccc(C#N)cc1C(=O)N1Cc2cn(-c3cncc(F)c3)nc2C1 | 
13 | 105 | 161 | > 10000 | CC(C)Oc1ccc(C#N)cc1C(=O)N1Cc2cn(-c3ccccc3)nc2C1 | 
14 | 406 | 79 | > 10000 | CC(C)S(=O)(=O)c1ccc(O[C@@H](C)C(F)(F)F)c(C(=O)N2Cc3cn(-c4ccccc4)nc3C2)c1 | microsomal CLint at 1 µM [4]: 10 µL/min/mg; microsomal CLint at 1 µM [5]: 1.8 µL/min/mg; IC50 [6]: > 10000 nM; Papp A→B at 1 h, 5 µM [7]: 56.6 ×10⁻⁶ cm/s; Papp B→A at 1 h, 5 µM [8]: 123 ×10⁻⁶ cm/s; efflux ratio at 1 h, 5 µM [9]: 2.2; IC50 (Cytochrome P450 1A2): > 10000 nM; IC50 (Cytochrome P450 2C9): > 10000 nM; IC50 (Cytochrome P450 2C19): > 10000 nM; IC50 (Cytochrome P450 2D6): > 10000 nM; IC50 (Cytochrome P450 3A4): > 10000 nM
15 |  | 12 | > 10000 | CS(=O)(=O)c1ccc(N2CCC(F)(F)CC2)c(C(=O)N2Cc3cn(-c4ccccc4F)nc3C2)c1 | 
16 | 23 | 12 | > 10000 | Cc1cccc(-n2cc3c(n2)CN(C(=O)c2cc(S(C)(=O)=O)ccc2O[C@@H](C)C(F)(F)F)C3)c1 | 
17 |  | 10 | > 10000 | CS(=O)(=O)c1ccc(N2CCC(F)(F)CC2)c(C(=O)N2Cc3cn(-c4cncc(F)c4)nc3C2)c1 | 
18 | 27 | 8 | > 10000 | CCS(=O)(=O)c1ccc(O[C@@H](C)C(F)(F)F)c(C(=O)N2Cc3cn(-c4cncc(F)c4)nc3C2)c1 | microsomal CLint at 1 µM [4]: 1.3 µL/min/mg; microsomal CLint at 1 µM [5]: 5.4 µL/min/mg; IC50 [6]: > 10000 nM; Papp A→B at 1 h, 5 µM [7]: 5.8 ×10⁻⁶ cm/s; Papp B→A at 1 h, 5 µM [8]: 99 ×10⁻⁶ cm/s; efflux ratio at 1 h, 5 µM [9]: 17.2; IC50 (Cytochrome P450 1A2): > 10000 nM; IC50 (Cytochrome P450 2C9): > 10000 nM; IC50 (Cytochrome P450 2C19): > 10000 nM; IC50 (Cytochrome P450 2D6): > 10000 nM; IC50 (Cytochrome P450 3A4): > 10000 nM
19 | 12 | 4 | > 10000 | CCS(=O)(=O)c1ccc(O[C@@H](C)C(F)(F)F)c(C(=O)N2Cc3cn(-c4ccnc(C)c4)nc3C2)c1 | 
20 | 4 | 2 | > 10000 | Cc1cc(-n2cc3c(n2)CN(C(=O)c2cc(S(C)(=O)=O)ccc2-c2cccc(F)c2)C3)ccn1 | 
